In the experiment the test system is CD2F1 mice, L1210 leukemia ip, survival T/C. The experiment can be described thus: NCI In Vivo Anticancer Drug Screen. Data for tumor model L1210 Leukemia (intraperitoneal) in CD2F1 (CDF1) mice. The settings on record: higher = longer survival. In short, it runs like this: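 Vehicle-treated tumor-bearing mice served as controls (C) for compound-treated mice (T). Reported figure is T divided by C.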

Setting [1] is: endpoint: mean survival time, dose: 100.0 mg/kg/injection, schedule: Q04DX003 (ip), vehicle: saline with Tween-80.
Setting [2] is: endpoint: mean survival time, dose: 200.0 mg/kg/injection, schedule: Q01DX009 (ip), vehicle: saline with Tween-80.
The mark [3] stands for this setting: endpoint: mean survival time, dose: 200.0 mg/kg/injection, schedule: Q04DX003 (ip), vehicle: saline with Tween-80.
[4] abbreviates: endpoint: mean survival time, dose: 400.0 mg/kg/injection, schedule: Q04DX003 (ip), vehicle: saline with Tween-80.
The mark [5] stands for this setting: endpoint: mean survival time, dose: 25.0 mg/kg/injection, schedule: Q01DX009 (ip), vehicle: saline.
[6] abbreviates: endpoint: mean survival time, dose: 25.0 mg/kg/injection, schedule: Q04DX002 (ip), vehicle: saline with Tween-80.
Where [7] appears, read: endpoint: mean survival time, dose: 50.0 mg/kg/injection, schedule: Q01DX009 (ip), vehicle: saline.
Setting [8] is: endpoint: mean survival time, dose: 100.0 mg/kg/injection, schedule: Q01DX001 (ip), vehicle: saline with Tween-80.
Setting [9] is: endpoint: mean survival time, dose: 100.0 mg/kg/injection, schedule: Q01DX009 (ip), vehicle: saline.
The mark [10] stands for this setting: endpoint: mean survival time, dose: 100.0 mg/kg/injection, schedule: Q01DX001 (ip), vehicle: saline.
[11] abbreviates: endpoint: mean survival time, dose: 200.0 mg/kg/injection, schedule: Q01DX001 (ip), vehicle: saline.
[12] abbreviates: endpoint: mean survival time, dose: 25.0 mg/kg/injection, schedule: Q01DX009 (ip), vehicle: water.

Where “and” joins values, the source holds several entries; their conditions need not be identical. Equal entries are not always repeated. Toxic doses and inconclusive results are not listed.

Take `O=c1nc(NCc2cccs2)ccn1C1OC(CO)C(O)C1O` (stereo not given): the T/C by setting is: (endpoint: median survival time, dose: 12.5 mg/kg/injection, schedule: Q01DX005 (ip), vehicle: water) 104 % of control; (endpoint: median survival time, dose: 25.0 mg/kg/injection, schedule: Q01DX005 (ip), vehicle: water) 103 % of control; (endpoint: median survival time, dose: 50.0 mg/kg/injection, schedule: Q01DX005 (ip), vehicle: water) 103 % of control; (endpoint: median survival time, dose: 100.0 mg/kg/injection, schedule: Q01DX005 (ip), vehicle: water) 102 % of control; (endpoint: median survival time, dose: 200.0 mg/kg/injection, schedule: Q01DX005 (ip), vehicle: water) 102 % of control.
With `CCCCCCCCOC(=O)c1ccccc1C(=O)OCCCCCCCC`, the T/C runs as follows: (endpoint: mean survival time, dose: 100.0 mg/kg/injection, schedule: Q01DX009 (ip), vehicle: saline with Tween-80) 110 % of control; under setting [1], 98 % of control; under setting [2], 102 % of control; under setting [3], 93 % of control; (endpoint: mean survival time, dose: 400.0 mg/kg/injection, schedule: Q01DX009 (ip), vehicle: saline with Tween-80) 98 % of control; under setting [4], 90 % of control.
For `CCN(CC)c1cc(Cl)ccc1Cl`, the T/C by setting is: under setting [5], 102 % of control; under setting [6], 91 % of control; under setting [7], 101 % of control; (endpoint: mean survival time, dose: 50.0 mg/kg/injection, schedule: Q04DX002 (ip), vehicle: saline with Tween-80) 95 % of control; under setting [8], 98 % of control; under setting [9], 101 % of control.
`Cc1ccc(C(C)C)c(OCC[N+]2(CCOc3cc(C)ccc3C(C)C)CC=CC2)c1`: the T/C reads like this: (endpoint: mean survival time, dose: 6.25 mg/kg/injection, schedule: Q04DX002 (ip), vehicle: saline with Tween-80) 100 % of control; (endpoint: mean survival time, dose: 12.5 mg/kg/injection, schedule: Q04DX002 (ip), vehicle: saline with Tween-80) 94 % of control; under setting [6], 100 % of control.
Turning to `CCC12OC3(CC)C4C(=O)OC1C1(CC)OC4(CC)C3C(=O)OC21`, the T/C by setting is: under setting [10], 103 % of control; (endpoint: mean survival time, dose: 100.0 mg/kg/injection, schedule: Q04DX003 (ip), vehicle: saline) 102 % of control; under setting [11], 102 % of control; (endpoint: mean survival time, dose: 200.0 mg/kg/injection, schedule: Q04DX003 (ip), vehicle: saline) 100 % of control; (endpoint: mean survival time, dose: 400.0 mg/kg/injection, schedule: Q01DX001 (ip), vehicle: saline) 96 % of control; (endpoint: mean survival time, dose: 400.0 mg/kg/injection, schedule: Q04DX003 (ip), vehicle: saline) 94 % of control.
On to `C#CC(O)CCC` (stereo not given), for which the T/C was 97 % of control under setting [10] and 97 % of control under setting [11].
Turning to `COc1ccc(C(=O)/C=C/c2ccc(O)cc2)cc1`, the T/C by setting is: (endpoint: mean survival time, dose: 37.5 mg/kg/injection, schedule: Q01DX009 (ip), vehicle: saline) 98 % of control; (endpoint: mean survival time, dose: 75.0 mg/kg/injection, schedule: Q01DX009 (ip), vehicle: saline) 102 % of control; (endpoint: mean survival time, dose: 150.0 mg/kg/injection, schedule: Q01DX009 (ip), vehicle: saline) 98 % of control.
For the molecule `O=C1CSC(=S)N1/N=C/c1cc2c(cc1[N+](=O)[O-])OCO2`, the T/C runs as follows: (endpoint: mean survival time, dose: 75.0 mg/kg/injection, schedule: Q01DX001 (ip), vehicle: other) 102 % of control; (endpoint: mean survival time, dose: 300.0 mg/kg/injection, schedule: Q01DX001 (ip), vehicle: other) 90 % of control.
`CS(=O)(=O)c1cnccn1`: the T/C is 93 % of control (endpoint: mean survival time, dose: 100.0 mg/kg/injection, schedule: Q04DX003 (ip), vehicle: saline sonified); 95 % of control (endpoint: mean survival time, dose: 200.0 mg/kg/injection, schedule: Q04DX003 (ip), vehicle: saline sonified); 96 % of control (endpoint: mean survival time, dose: 400.0 mg/kg/injection, schedule: Q04DX003 (ip), vehicle: saline sonified).
Consider `[Cl][Dy]([Cl])[Cl]`, for which the T/C is 89 % of control (endpoint: mean survival time, dose: 50.0 mg/kg/injection, schedule: Q01DX009 (ip), vehicle: saline with Tween-80) and 90 % of control under setting [2].
Take `Nc1nc([S-])c2[nH]cnc2n1.[Cl-].[Cl-].[H+].[Pd+2].[Pd+2].[Pd+2]`: the T/C reads like this: (endpoint: mean survival time, dose: 3.13 mg/kg/injection, schedule: Q04DX003 (ip), vehicle: saline with Tween-80) 124 % of control; (endpoint: mean survival time, dose: 6.25 mg/kg/injection, schedule: Q04DX003 (ip), vehicle: saline with Tween-80) 164 % of control; (endpoint: mean survival time, dose: 100.0 mg/kg/injection, schedule: Q04DX003 (ip), vehicle: suspension in saline) 114 % of control and 91 % of control.
As for `Cc1ccc(C2CC3c4ccccc4C2C2CCCCN32)cc1` (stereo not given), the T/C is, setting by setting: (endpoint: mean survival time, dose: 1.56 mg/kg/injection, schedule: Q01DX009 (ip), vehicle: water) 88 % of control and 86 % of control; (endpoint: mean survival time, dose: 3.13 mg/kg/injection, schedule: Q01DX009 (ip), vehicle: water) 86 % of control; (endpoint: mean survival time, dose: 6.25 mg/kg/injection, schedule: Q01DX009 (ip), vehicle: water) 88 % of control; (endpoint: mean survival time, dose: 12.5 mg/kg/injection, schedule: Q01DX009 (ip), vehicle: water) 88 % of control and 93 % of control; under setting [12], 89 % of control and 102 % of control.
Turning to `CCCCNC(C)(C)C(=O)c1cccs1`, the T/C under setting [5] was 94 % of control, the T/C under setting [7] was 98 % of control and the T/C under setting [9] is 100 % of control.
For `C/C=C/C(Cc1ccc2ccccc2c1)(C(=O)OCC)C(=O)OCC`, the T/C by setting is: (endpoint: mean survival time, dose: 50.0 mg/kg/injection, schedule: Q01DX009 (ip), vehicle: Klucel (hydroxypropylcellulose) (HPC)) 91 % of control; (endpoint: mean survival time, dose: 100.0 mg/kg/injection, schedule: Q01DX009 (ip), vehicle: Klucel (hydroxypropylcellulose) (HPC)) 88 % of control; (endpoint: mean survival time, dose: 200.0 mg/kg/injection, schedule: Q01DX009 (ip), vehicle: Klucel (hydroxypropylcellulose) (HPC)) 94 % of control.
Consider `O=C(Cc1ccc([N+](=O)[O-])cc1)c1ccc(O)cc1O`, for which the T/C is 96 % of control (endpoint: mean survival time, dose: 100.0 mg/kg/injection, schedule: Q04DX003 (ip), vehicle: Klucel (hydroxypropylcellulose) (HPC)); 98 % of control (endpoint: mean survival time, dose: 200.0 mg/kg/injection, schedule: Q04DX003 (ip), vehicle: Klucel (hydroxypropylcellulose) (HPC)); 103 % of control (endpoint: mean survival time, dose: 400.0 mg/kg/injection, schedule: Q04DX003 (ip), vehicle: Klucel (hydroxypropylcellulose) (HPC)).
For `COC1C(C)OC(OC2CC(C)(O)C(C(=O)O)c3cc4c(c(O)c32)C(=O)c2c(O)cc3c(c2C4=O)OC2OC3(C)C(O)C(N(C)C)C2O)C(OC)C1(C)OC` (stereo not given), the T/C reads like this: (endpoint: mean survival time, dose: 5.0 mg/kg/injection, schedule: Q01DX009 (ip), vehicle: other) 113 % of control; (endpoint: mean survival time, dose: 10.0 mg/kg/injection, schedule: Q01DX009 (ip), vehicle: other) 107 % of control; (endpoint: mean survival time, dose: 10.0 mg/kg/injection, schedule: Q04DX003 (ip), vehicle: other) 113 % of control; (endpoint: mean survival time, dose: 20.0 mg/kg/injection, schedule: Q01DX009 (ip), vehicle: other) 118 % of control; (endpoint: mean survival time, dose: 20.0 mg/kg/injection, schedule: Q04DX003 (ip), vehicle: other) 113 % of control; (endpoint: mean survival time, dose: 40.0 mg/kg/injection, schedule: Q04DX003 (ip), vehicle: other) 117 % of control. For the same molecule, the T/C (endpoint: mean survival time, dose: 80.0 mg/kg/injection, schedule: Q04DX003 (ip), vehicle: other) is 115 % of control.
For the molecule `CCOC(=O)c1ccc(NC(=O)C(Br)C(Br)C(=O)O)cc1` (stereo not given), the T/C reads like this: under setting [8], 110 % of control; (endpoint: mean survival time, dose: 200.0 mg/kg/injection, schedule: Q01DX001 (ip), vehicle: saline with Tween-80) 110 % of control; (endpoint: mean survival time, dose: 400.0 mg/kg/injection, schedule: Q01DX001 (ip), vehicle: saline with Tween-80) 108 % of control.
As for `CCN(CC)CCCC(C)NS(=O)(=O)c1cccc2c(N(C)C)cccc12` (stereo not given), the T/C is 102 % of control under setting [12]; 98 % of control (endpoint: mean survival time, dose: 50.0 mg/kg/injection, schedule: Q01DX009 (ip), vehicle: water); 96 % of control (endpoint: mean survival time, dose: 100.0 mg/kg/injection, schedule: Q01DX009 (ip), vehicle: water).
As for `O=[N+]([O-])c1cc(I)c(I)c(I)c1`, the T/C reads like this: under setting [1], 98 % of control; under setting [3], 104 % of control; under setting [4], 98 % of control.
Consider `Oc1ccc(C(=S)N2CCOCC2)cc1`, for which the T/C is, setting by setting: under setting [9], 100 % of control; (endpoint: mean survival time, dose: 200.0 mg/kg/injection, schedule: Q01DX009 (ip), vehicle: saline) 95 % of control; (endpoint: mean survival time, dose: 400.0 mg/kg/injection, schedule: Q01DX009 (ip), vehicle: saline) 94 % of control.
For `Cc1cc([N+](=O)[O-])ccc1P(=O)(O)O`, the T/C under setting [7] is 88 % of control.
